Measured values: US7115603B2, “A1-pyrrolines” (priority 2001, dated 2006)
Where two headings read alike, the source gives them in different places.

Legend:
[1] = log P by HPLC on reversed-phase column (EEC Directive 79/831 Annex V.A8); assay type: physicochemical
Protocol: The log p values reported in the above tables and preparation examples are determined in accordance with EEC Directive 79/831 Annex V.A8 by means of HPLC (high performance liquid chromatography) on a reversed-phase column (C 18). Temperature: 43° C.
Determination is carried out in the acidic range at a pH of 2.3 using 0.1% aqueous phosphoric acid and acetonitrile as mobile phases; linear gradient from 10% acetonitrile to 90% acetonitrile. The values are marked in the tables with ^a).
Determination takes place in the neutral range at a pH of 7.5 with 0.01-molar aqueous phosphate buffer solution and acetonitrile as mobile phases; linear gradient from 10% acetonitrile to 90% acetonitrile. The values are marked in the tables with ^b).
The calibration is carried out using unbranched alkan-2-ones (having from 3 to 16 carbon atoms) whose logP values are known (logP values determined on the basis of the retention times, using linear interpolation between two successive alkanones).

[2] = test system: larvae of the mustard beetle (Phaedon cochleariae); assay: Phaedon larvae test (cabbage leaves dipped); assay type: in vivo; settings: 168 h, kill, 7 d, read-out: Efficacy in % after 7 d; for pest or weed control at 100 ppm: 100 ppm active compound
Protocol: (§1) [table] To produce a suitable preparation of active compound, 1 part by weight of active compound is mixed with the stated amounts of solvent and emulsifier, and the concentrate is diluted with emulsifier-containing water to the desired concentration. Cabbage leaves (Brassica oleracea) are treated by being dipped into the preparation of active compound of the desired concentration and are populated with larvae of the mustard beetle (Phaedon cochleariae) whilst the leaves are still moist. After the desired period of time, the kill in % is determined. 100% means that all beetle larvae have been killed; 0% means that none of the beetle larvae has been killed.

[3] = test system: army worm (Spodoptera frugiperda) caterpillars; assay: Spodoptera frugiperda test (cabbage leaves dipped); assay type: in vivo; settings: 168 h, kill, 100 ppm active compound, 7 d, read-out: Efficacy in % after 7 d
Protocol: as §1, with “army worm (Spodoptera frugiperda) caterpillars” for “larvae of the mustard beetle (Phaedon cochleariae)”, “caterpillars” for “beetle larvae”

[4] = test system: greenhouse red spider mite (Tetranychus urticae); assay: Tetranychus test (OP resistant/dip treatment); assay type: in vivo; settings: kill of spider mites, 100 ppm active compound
Protocol: [table] To produce a suitable preparation of active compound, 1 part by weight of active compound is mixed with the stated amounts of solvent and emulsifier, and the concentrate is diluted with emulsifier-containing water to the desired concentration. Bean plants (Phaseolus vulgaris) which are heavily infested by all stages of the greenhouse red spider mite (Tetranychus urticae) are dipped into a preparation of active compound of the desired concentration. After the desired period of time, the effect in % is determined. 100% means that all spider mites have been killed; 0% means that none of the spider mites has been killed.

[5] = test system: Heliothis virescens caterpillars; assay: Heliothis virescens test (soya bean shoots dipped); assay type: in vivo; settings: kill, 100 ppm active compound
Protocol: as §1, with “Soya bean shoots (Glycine max)” for “Cabbage leaves (Brassica oleracea)”, “Heliothis virescens caterpillars” for “larvae of the mustard beetle (Phaedon cochleariae)”, “caterpillars” for “beetle larvae”

[6] = test system: cabbage moth (Plutella xylostella) caterpillars; assay: Plutella test (cabbage leaves dipped); assay type: in vivo; settings: kill
Protocol: as §1, with “cabbage moth (Plutella xylostella) caterpillars” for “larvae of the mustard beetle (Phaedon cochleariae)”, “caterpillars” for “beetle larvae”

[7] = test system: army worm (Spodoptera exigua) caterpillars; assay: Spodoptera exigua test (cabbage leaves dipped); assay type: in vivo; settings: kill
Protocol: as §1, with “army worm (Spodoptera exigua) caterpillars” for “larvae of the mustard beetle (Phaedon cochleariae)”, “caterpillars” for “beetle larvae”

Lucilia cuprina larvae = assay: Blowfly larvae test/development-inhibiting effect; assay type: in vivo; settings: for mortality at 100 ppm: 100 ppm active compound; for mortality at 20 ppm: 20 ppm active compound
Protocol: 20 mg of active compound are dissolved in 1 ml of dimethyl sulphoxide; lower concentrations are prepared by dilution with distilled water.
About 20 Lucilia cuprina larvae are introduced into a test tube containing about 1 cm^3 of horse meat and 0.5 ml of the test preparation of active compound. After 24 and 48 hours, the activity of the preparation is determined. The test tubes are transferred to beakers with their bases covered with sand. After a further 14 days, the test tubes are removed and the pupae/flies are counted.
The effect of the preparation is assessed according to the number of flies which have hatched after 1.5 times the development period of an untreated control. 100% means that no flies have hatched; 0% means that all of the flies have hatched normally.

[8] = test system: cotton aphid (Aphis gossypii); assay: Aphis gossypii test (cotton leaves dipped); assay type: in vivo; settings: kill, 100 ppm active compound
Protocol: as §1, with “Cotton” for “Cabbage”, “(Gossypium hirsutum) heavily infested by the cotton aphid (Aphis gossypii)” for “(Brassica oleracea)”, “concentration.” for “concentration and are populated with larvae of the mustard beetle (Phaedon cochleariae) whilst the leaves are still moist.”, “[…]” for “beetle larvae”

[9] = test system: fruit tree red spider mite (Panonychus ulmi); assay: Panonychus test (plum trees dipped); assay type: in vivo; settings: kill of spider mites, 100 ppm active compound
Protocol: To produce a suitable preparation of active compound, 1 part by weight of active compound is mixed with the stated amounts of solvent and emulsifier, and the concentrate is diluted with emulsifier-containing water to the desired concentration.
Plum trees (Prunus domestica) about 30 cm high which are heavily infested by all stages of the fruit tree red spider mite (Panonychus ulmi) are dipped into a preparation of active compound of the desired concentration.
After the desired period of time, the effect in % is determined. 100% means that all spider mites have been killed; 0% means that none of the spider mites has been killed.

[10] = test system: caterpillars of the cotton bollworm (Heliothis armigera); assay: Heliothis armigera test (soya bean shoots dipped); assay type: in vivo; settings: kill, 20 ppm active compound
Protocol: as §1, with “concentration. Soya bean shoots (Glycine max)” for “concentration. Cabbage leaves (Brassica oleracea)”, “with caterpillars” for “with larvae”, “the cotton bollworm (Heliothis armigera)” for “the mustard beetle (Phaedon cochleariae)”, “all […]” for “all beetle larvae”, “the caterpillars” for “the beetle larvae”

[11] = reversed-phase HPLC column (C18); HPLC, acidic range pH 2.3, marked a)
[12] = reversed-phase HPLC column (C18); HPLC, neutral range pH 7.5, marked b)
[13] = 336 h, 14 d, inhibition of fly hatching, read-out: % Activity/kill (14 d)

chromatographic logP [1, 11] | chromatographic logP [1, 12] | Structure (SMILES) | pest or weed control at 100 ppm [2] [%] | pest or weed control at 100 ppm [3] [%] | Efficacy in % after 7 d [4] [%] | Efficacy in % after 7 d [5] [%] | Efficacy in % after 7 d ([6]; 100 ppm active compound) [%] | Efficacy in % after 7 d ([7]; 100 ppm active compound) [%] | mortality at 100 ppm (Lucilia cuprina larvae; [13]) [%] | pest or weed control at 20 ppm ([2]; 20 ppm active compound) [%] | mortality at 20 ppm (Lucilia cuprina larvae; [13]) [%] | Efficacy in % after 6 d [8] [%] | Efficacy in % after 7 d [9] [%] | Efficacy in % after 7 d [10] [%] | Efficacy in % after 7 d ([6]; 20 ppm active compound) [%] | Efficacy in % after 7 d ([7]; 20 ppm active compound) [%] | mortality at 100 ppm (Lucilia cuprina larvae; 48 h, read-out: % Activity/kill (48 h)) [%]
3.99 | 5.34 | Fc1cccc(F)c1C1=NC(c2ccc(-c3ccc(OC4CCCC4)nc3)cc2)CC1 (stereo not drawn) [compound 21] | 100 | 100 | 95 |  |  |  |  |  |  |  |  |  |  |  | 
2.92 |  | CCOc1ccc(Br)cn1 [III-1, 5-bromo-2-ethoxypyridine] |  |  |  |  |  |  |  |  |  |  |  |  |  |  | 
2.92 |  | CCOc1ccc(-c2ccc(C3CCC(c4c(F)cccc4F)=N3)cc2)cn1 (stereo not drawn) [No. 1, 5-{4-[5-(2,6-difluorophenyl)-3,4-dihydro-2H-pyrrol-2-yl]phenyl}-2-ethoxypyridine] | 100 | 100 |  |  |  |  |  |  |  |  |  |  |  |  | 
3.42 | 4.77 | CCCOc1ccc(-c2ccc(C3CCC(c4c(F)cccc4F)=N3)cc2)cn1 (stereo not drawn) [compound 5] | 100 | 100 | 98 | 100 | 100 | 100 |  |  |  | 99 |  |  |  |  | 
3.8 | 4.96 | CC(C)Sc1ccc(-c2ccc(C3CCC(c4c(F)cccc4F)=N3)cc2)cn1 (stereo not drawn) [compound 8] | 100 | 100 | 98 | 100 | 100 | 100 |  |  |  |  |  |  |  |  | 
3.42 | 4.73 | CC(C)Oc1ccc(-c2ccc(C3CCC(c4c(F)cccc4F)=N3)cc2)cn1 (stereo not drawn) [compound 7] | 100 | 100 |  | 100 | 100 | 100 |  |  |  | 99 | 100 |  |  |  | 

Structure (SMILES) | chromatographic logP [1, 11] | chromatographic logP [1, 12] | pest or weed control at 100 ppm [2] [%] | pest or weed control at 100 ppm [3] [%] | Efficacy in % after 7 d [4] [%] | Efficacy in % after 7 d [5] [%] | Efficacy in % after 7 d ([6]; 100 ppm active compound) [%] | Efficacy in % after 7 d ([7]; 100 ppm active compound) [%] | mortality at 100 ppm (Lucilia cuprina larvae; [13]) [%] | pest or weed control at 20 ppm ([2]; 20 ppm active compound) [%] | mortality at 20 ppm (Lucilia cuprina larvae; [13]) [%] | Efficacy in % after 6 d [8] [%] | Efficacy in % after 7 d [9] [%] | Efficacy in % after 7 d [10] [%] | Efficacy in % after 7 d ([6]; 20 ppm active compound) [%] | Efficacy in % after 7 d ([7]; 20 ppm active compound) [%] | mortality at 100 ppm (Lucilia cuprina larvae; 48 h, read-out: % Activity/kill (48 h)) [%]
CCSc1ccc(-c2ccc(C3CCC(c4c(F)cccc4F)=N3)cc2)cn1 (stereo not drawn) [compound 4] | 3.29 | 4.54 | 100 | 100 | 95 | 100 | 100 | 100 | 100 |  |  |  |  |  |  |  | 
Fc1cccc(F)c1C1=NC(c2ccc(-c3ccc(OC4CCC4)nc3)cc2)CC1 (stereo not drawn) [compound 19] | 3.66 | 4.9 |  | 100 | 95 |  |  |  | 100 | 100 | 100 |  |  |  |  |  | 
Fc1cccc(F)c1C1=NC(c2ccc(-c3ccc(OCC4CC4)nc3)cc2)CC1 (stereo not drawn) [compound 25] | 3.48 | 4.67 | 100 | 100 |  |  |  |  |  |  | 100 |  |  | 100 | 100 | 100 | 100
